In patent US9550796B2, “Pyrrolopyrrolone derivatives and their use as BET inhibitors” (NOVARTIS AG, priority 2013, dated 2017):

How the values were obtained:
MV-4-11 = assay: Cell growth inhibition assay (CellTiter-Glo), MV-4-11; format: cell-based, human; conditions: MV-4-11 cells, 4 days; for GI50: Homo sapiens, MV4-11, 96 h, half-maximal growth inhibition; for MV-4-11 TGI: total growth inhibition
Protocol: (§1) Cell Growth Inhibition Assay
(§2) The human leukemia cell lines MV-4-11, THP-1 and K-562 were employed to characterize the effect of BET inhibitors on cellular proliferation and viability. Cells were obtained from the American Type Culture Collection (ATCC) and cultured at 37° C. in a humidified 5% CO2 incubator in the following media: MV-4-11: DMEM high glucose (Animed #1-26F01-I), 10% FCS (Animed #2-01F26-I), 4 mM L-Glutamine (Animed #5-10K50), 1 mM Sodium Pyruvate (Animed # G03625P), 1× Penicillin-Streptomycin (Animed # F12478P); K-562: Iscove's MEM (Animed #1-28F16-I), 10% FCS (Animed #2-01F26-I), 4 mM L-Glutamine (Animed #5-10K50), 1× Penicillin-Streptomycin (Animed # F12478P); THP-1: RPMI-1640 (Animed #1-41F01-I), 10% FCS (Animed #2-01F26-I), 2 mM L-Glutamine (Animed #5-10K50), 10 mM HEPES (Animed #5-31F100), 1 mM Sodium Pyruvate (Animed # G03625P), 1× Penicillin-Streptomycin (Animed # F12478P). The AML lines MV-4-11 and THP-1 are very sensitive to BET inhibitors and show massive cell death upon BET inhibition (Zuber et al., Nature, 478 (2011), 524-8). Compound-mediated suppression of cell proliferation/viability was assessed by quantification of cellular ATP levels using the CellTiter-Glo (CTG) reagent (Promega). Briefly, cells were seeded in 20 μl fresh medium into 384-well plates, followed by addition of 5 μL medium containing compound dilutions at 5-fold their final intended concentration. Dose-response effects were assessed by 3-fold serial dilutions of the test compound, starting at 10 μM. Following incubation of the cells for 4 days at 37° C. and 5% CO2, the effect of inhibitors on cell viability was quantified following addition of 20 μl CTG and luminescence quantification (integration time: 100 ms) as per vendor manual, using a correspondingly equipped Tecan M200 multi-mode platereader (TECAN, Switzerland). For data analysis, the assay background value determined in wells containing medium, but no cells, was subtracted from all data points. To enable differentiation of cytotoxic from cytostatic compounds, the number of viable cells is assessed relative to that observed at the time of compound addition using a separate cell plate (day 0). The effect of a particular test compound concentration on cell proliferation/viability is expressed as percentage of the background- and day 0-corrected luminescence reading obtained for cells treated with vehicle only (DMSO, 0.1% final concentration), which is set as 100%, whereas that luminescence reading for wells containing medium is set as −100%. Compound concentrations leading to half-maximal (IC50) and total growth inhibition (TGI) were determined using standard four parameter curve fitting.

CREBBP = CREBBP (Homo sapiens (Human), UniProt Q92793); assay: AlphaScreen in-vitro binding assay for CREBBP; conditions: 324 nM His-CREBBP (1081-1197), acetyl-histone H4 (AcK 5, 8, 12) peptide
Chain of CREBBP (Q92793 1081-1197): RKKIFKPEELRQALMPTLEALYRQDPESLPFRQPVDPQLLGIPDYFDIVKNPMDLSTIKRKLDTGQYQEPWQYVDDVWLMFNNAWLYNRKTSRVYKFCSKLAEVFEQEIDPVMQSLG
Protocol: AlphaScreen In-Vitro Binding Assay for CREBBP
In order to assess bromodomain selectivity, we set up a binding assay using the bromodomain encoded by the CREBBP gene. […] The assay was started by stepwise addition of 4.5 μL per well of bromo domain protein (50 mM HEPES, pH 7.5, 0.005% Tween20, 0.02% BSA, 150 mM NaCl, 324 nM His-CREBBP (1081-1197) (custom production at Viva Biotech Ltd.)) and 4.5 μL per well of peptide solution (50 mM HEPES, pH 7.5, 0.005% Tween20, 0.02% BSA, 150 mM NaCl, 120 nM acetyl-histone H4 (AcK 5, 8, 12) (Biosyntan GmbH)). Reactions were incubated at 30° C. for 35 minutes. Subsequently 4.5 μL per well detection mix (50 mM HEPES, pH 7.5, 0.005% Tween20, 0.02% BSA, 150 mM NaCl, 45 μg/ml Ni-chelate acceptor beads, 45 μg/mL streptavidin-donor beads) (Perkin Elmer)) were added. After 60 minutes incubation at room temperature, plates were measured in a Perkin Elmer EnVision multilabel reader. IC50 values were determined from percent inhibition values at different compound concentrations by non-linear regression analysis.
Test compounds were dissolved in DMSO (10 mM) and transferred into 1.4 mL flat bottom or V-shaped Matrix tubes carrying a unique 2D matrix. The stock solutions were stored at […] if not used immediately. For the test procedure the vials were defrosted and identified by a scanner whereby a working sheet was generated that guided the subsequent working steps. Compound dilutions were made in 96 well plates. This format enabled the assay of maximally […] at 8 concentrations (single points) including 4 reference compounds, if desired (known BET inhibitors from the prior art, for this and other assays of the type disclosed herein). The dilution protocol included the production of “pre-dilution plates”, “master plates” and “assay plates”.
Polypropylene 96-well plates were used as pre-dilution plates. A total of 4 pre-dilution plates were prepared including 10 test compounds each on the plate positions A1-A10, one standard compound at A11 and one DMSO control at […]. All dilution steps were done on a HamiltonSTAR robot.
30 μL of individual compound dilutions including standard compound and controls of the 4 “pre-dilution plates” were transferred into a 384-well “master plate” including the following concentrations 10000, […], 1000, 300, 100, 30, 10 and 3 μM, respectively in 90% of DMSO.
Identical “assay plates” were then prepared by pipetting 50 nL each of compound dilutions of the “master plates” into 384-well “assay plates” by means of a HummingBird 384-channel dispenser. These plates were used directly for the assay which was performed in a total volume of 13.55 μL.

THP-1 = assay: Cell growth inhibition assay (CellTiter-Glo), THP-1; format: cell-based, human; conditions: THP-1 cells, 4 days; for GI50: Homo sapiens, 96 h, half-maximal growth inhibition; for THP-1 TGI: total growth inhibition
Protocol: as §1, §2

K-562 = assay: Cell growth inhibition assay (CellTiter-Glo), K-562; format: cell-based, human; conditions: K-562 cells, 4 days; for GI50: Homo sapiens, K562, 96 h, half-maximal growth inhibition; for K-562 TGI: total growth inhibition
Protocol: as §1, §2

BRD4 = BRD4 (Homo sapiens (Human), UniProt O60885); assay: TR-FRET in-vitro binding assay for BRD4; conditions: 45 nM His-Brd4(44-477), acetyl-histone H4 (AcK 5, 8, 12, 16) peptide
Protocol: (§3) TR-FRET In-Vitro Binding Assays for BRD2, BRD3, and BRD4: All assays were performed in 384-well microtiter plates. […] Liquid handling and incubation steps were done on an Innovadyne Nanodrop Express equipped with a robotic arm (Thermo CatX, Perkin Elmer/Caliper Twister II) and an incubator (Liconic STX40, Thermo Cytomat 2C450). The assay plates were prepared by addition of 50 nl per well of compound solution in 90% DMSO HummingBird nanodispenser (Zinsser Analytic). […] Reactions were incubated at 30° C. for 35 minutes. […] After 35 minutes incubation at 30° C., plates were measured in a Perkin Elmer EnVision multilabel reader. […] The stock solutions were stored at […] if not used immediately. For the test procedure the vials were defrosted and identified by a scanner whereby a working sheet was generated that guided the subsequent working steps. Compound dilutions were made in 96 well plates. This format enabled the assay of maximally […] at 8 concentrations (single points) including 4 reference compounds, if desired (known BET inhibitors from the prior art, for this and other assays of the type disclosed herein). The dilution protocol included the production of “pre-dilution plates”, “master plates” and “assay plates”. Polypropylene 96-well plates were used as pre-dilution plates. […] All dilution steps were done on a HamiltonSTAR robot. […] Identical “assay plates” were then prepared by pipetting 50 nL each of compound dilutions of the “master plates” into 384-well “assay plates” by means of a HummingBird 384-channel dispenser. These plates were used directly for the assay which was performed in a total volume of 13.55 μL.

BRD3 = BRD3 (Homo sapiens (Human), UniProt Q15059); assay: TR-FRET in-vitro binding assay for BRD3; conditions: 45 nM His-Brd3(20-477), acetyl-histone H4 (AcK 5, 8, 12, 16) peptide
Chain of BRD3 (Q15059 20-477): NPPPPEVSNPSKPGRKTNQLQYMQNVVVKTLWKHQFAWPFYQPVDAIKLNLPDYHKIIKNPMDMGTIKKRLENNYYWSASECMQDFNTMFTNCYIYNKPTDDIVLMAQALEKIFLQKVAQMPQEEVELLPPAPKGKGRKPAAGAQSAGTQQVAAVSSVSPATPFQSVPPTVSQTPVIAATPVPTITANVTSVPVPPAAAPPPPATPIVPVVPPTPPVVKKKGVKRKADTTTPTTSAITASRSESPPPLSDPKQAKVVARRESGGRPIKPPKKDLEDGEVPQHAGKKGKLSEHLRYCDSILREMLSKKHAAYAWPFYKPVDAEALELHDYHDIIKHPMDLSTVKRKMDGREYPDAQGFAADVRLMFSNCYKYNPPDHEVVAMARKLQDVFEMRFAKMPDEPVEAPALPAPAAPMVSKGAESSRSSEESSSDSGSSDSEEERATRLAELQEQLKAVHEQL
Protocol: as §3

GI50 (MV-4-11) [nM] | IC50 (CREBBP) [nM] | GI50 (THP-1) [nM] | GI50 (K-562) [nM] | IC50 (BRD4) [nM] | IC50 (BRD3) [nM] | SMILES | MV-4-11 TGI (MV-4-11) [nM] | THP-1 TGI (THP-1) [nM] | K-562 TGI (K-562) [nM]
4.95 | 6700 | 5.57 | 37.3 | < 11 | 12 | CNC(=O)c1cn(C)c2c1C(=O)N(c1cc(C)c3nnn(C)c3c1)C2c1ccc(Cl)cc1 (stereo not drawn) [Example 98, 6-(4-chlorophenyl)-5-(1,4-dimethyl-1H-benzo[d][1,2,3]triazol-6-yl)-N,1-dimethyl-4-oxo-1,4,5,6-tetrahydropyrrolo[3,4-b]pyrrole-3-carboxamide] | 12.53 | 15.97 | >8200
7.2 | 27900 | 15.4 | 197 | 17 | 21 | Cc1cn(C)c2c1C(=O)N(c1cc(C)c3nnc(C(F)F)n3c1)C2c1ccc(Cl)cc1 (stereo not drawn) [Example 107, 6-(4-chlorophenyl)-5-(3-(difluoromethyl)-8-methyl-[1,2,4]triazolo[4,3-a]pyridin-6-yl)-1,3-dimethyl-5,6-dihydropyrrolo[3,4-b]pyrrol-4(1H)-one] | 22.95 | 22 | >10000
43.2 | > 37000 | 32.3 | 322 | 16 | 19 | CNC(=O)c1cn(C)c2c1C(=O)N(c1cc(C)c3nnc(C(F)F)n3n1)C2c1ccc(Cl)cc1 (stereo not drawn) [Example 108, 6-(4-chlorophenyl)-5-(3-(difluoromethyl)-8-methyl-[1,2,4]triazolo[4,3-b]pyridazin-6-yl)-N,1-dimethyl-4-oxo-1,4,5,6-tetrahydropyrrolo[3,4-b]pyrrole-3-carboxamide] | 78.35 | 72.75 | >10000
19.4 | > 37000 | 17.3 | 114 | 23 | 20 | CC(=O)Nc1cn(C)c2c1C(=O)N(c1cc(C)c3nnc(C(F)F)n3n1)C2c1ccc(Cl)cc1 (stereo not drawn) [Example 109, N-(6-(4-chlorophenyl)-5-(3-(difluoromethyl)-8-methyl-[1,2,4]triazolo[4,3-b]pyridazin-6-yl)-1-methyl-4-oxo-1,4,5,6-tetrahydropyrrolo[3,4-b]pyrrol-3-yl)acetamide] | 40.75 | 38.6 | >10000
10 | > 37000 | 257 | 211 | 30 | 37 | Cc1cc(N2C(=O)c3c(NC(=O)CCN(C)C)cn(C)c3C2c2ccc(Cl)cc2)nn2c(C(F)F)nnc12 (stereo not drawn) [Example 110, N-(6-(4-chlorophenyl)-5-(3-(difluoromethyl)-8-methyl-[1,2,4]triazolo[4,3-b]pyridazin-6-yl)-1-methyl-4-oxo-1,4,5,6-tetrahydropyrrolo[3,4-b]pyrrol-3-yl)-3-(dimethylamino)propanamide] | 25.5 | 293.5 | 5640
13.2 | > 37000 | 10.7 | 113 | < 11 | 19 | CNC(=O)Nc1cn(C)c2c1C(=O)N(c1cc(C)c3nnc(C(F)F)n3n1)C2c1ccc(Cl)cc1 (stereo not drawn) [Example 111, 1-(6-(4-chlorophenyl)-5-(3-(difluoromethyl)-8-methyl-[1,2,4]triazolo[4,3-b]pyridazin-6-yl)-1-methyl-4-oxo-1,4,5,6-tetrahydropyrrolo[3,4-b]pyrrol-3-yl)-3-methylurea] | 31.2 | 30.1 | >10000
19.4 | 17300 | 39.3 | 409 | 120 | 64 | Cc1cc(N2C(=O)c3c(C(=O)NCCN(C)C)cn(C)c3C2c2ccc(Cl)cc2)cc2c1nnn2C (stereo not drawn) [Example 112, 6-(4-chlorophenyl)-5-(1,4-dimethyl-1H-benzo[d][1,2,3]triazol-6-yl)-N-(2-(dimethylamino)ethyl)-1-methyl-4-oxo-1,4,5,6-tetrahydropyrrolo[3,4-b]pyrrole-3-carboxamide] | 34.75 | 95.95 | >10000
